Measurements: US20230365602A1, “COMPOUND FOR USE IN THE TREATMENT OF PROTOZOAL DISEASES AND PROCESS FOR PRODUCTION OF SAID COMPOUND” (QUADREL S.R.L., priority 2020, published 2023)
In brackets after ≈: the same amount, converted by molar mass. Entries after “also recorded” stand apart in the source; their conditions may differ. Like-named read-outs stand apart in the source and are kept apart here.

Assays:
[1] = test system: L. infantum (MHOM/MA/67/ITMAP-263) intracellular amastigotes; assay: Anti-parasitic activity against L. infantum intracellular amastigotes (infection with axenic amastigotes luciferase positive); format: cell-based
[2] = Toxicity MTT assay in PMA-differentiated THP-1 cells; format: cell-based, human; details: human, PMA-differentiated THP-1 cells (macrophages); for CC50: THP-1 macrophages, Table 1, read-out: Toxicity CC50 ± SD or NOAEL; for IC50: Table 4b, read-out: Cytotoxicity THP-1 (IC50)
Text: (§1) The in vitro antiparasitic activity against L. infantum (MHOM/MA/67/ITMAP-263) and the toxicity against THP-1 macrophages is presented in Table 1.

[3] = test system: PMA-differentiated THP-1 cells; assay: as above; format: cell-based, human; details: for Toxicity MTT assay in PMA-differentiated THP-1 cells: Table 5
Text: as §1

[4] = test system: T. b. brucei L427 WT Blood-Stream Form; assay: Anti-parasitic activity against T. b. brucei blood-stream form (resazurin 72 h assay); format: cell-based; details: for IC50: 72 h, read-out: Dose Response Curves IC50 ± SD (μM)
[5] = test system: L. amazonensis intracellular amastigotes; assay: Anti-leishmanial activity, L. amazonensis intracellular amastigotes; format: cell-based; details: Leishmania amazonensis
Text: (§2) The in vitro antiparasitic activity of compound 5-cyclopentadecylpentyl (2-(trimethylammonio)ethyl) phosphate (19) against L. infantum (2 species), L. amazonensis, L. donovani and L. major is presented in Table 3, as well as the toxicity against the human monocytic cell Line THP1 and PMA-differentiated THP-1 cells.

[6] = test system: L. major SASKH intracellular amastigotes; assay: Anti-leishmanial activity, L. major intracellular amastigotes; format: cell-based; details: Leishmania major; read-out: L. major SASKH intracellular amastigotes IC50 ± SEM
Text: as §2

[7] = target: CYP2D6 (Homo sapiens, UniProt P10635); assay: Early toxicity: CYP2D6 inhibition; format: in vitro ADME; details: human, mean ± SD, Table 4a
Chain of CYP2D6 (P10635 whole entry): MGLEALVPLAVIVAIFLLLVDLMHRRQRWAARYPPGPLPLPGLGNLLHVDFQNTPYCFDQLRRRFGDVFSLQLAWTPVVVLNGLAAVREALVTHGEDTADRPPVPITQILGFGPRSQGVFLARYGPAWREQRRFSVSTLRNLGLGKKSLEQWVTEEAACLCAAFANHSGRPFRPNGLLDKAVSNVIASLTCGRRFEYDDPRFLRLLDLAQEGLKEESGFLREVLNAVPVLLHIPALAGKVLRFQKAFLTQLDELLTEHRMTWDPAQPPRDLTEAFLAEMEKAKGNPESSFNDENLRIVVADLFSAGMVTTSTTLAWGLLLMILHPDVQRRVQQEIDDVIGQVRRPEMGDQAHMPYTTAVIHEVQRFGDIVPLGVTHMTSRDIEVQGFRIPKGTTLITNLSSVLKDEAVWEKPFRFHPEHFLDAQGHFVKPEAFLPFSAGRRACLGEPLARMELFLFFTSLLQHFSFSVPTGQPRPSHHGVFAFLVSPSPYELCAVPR

[8] = target: CYP3A4 (Homo sapiens, UniProt P08684); assay: Early toxicity: CYP3A4 inhibition; format: in vitro ADME; details: human, 10 μM
Chain of CYP3A4 (P08684 whole entry): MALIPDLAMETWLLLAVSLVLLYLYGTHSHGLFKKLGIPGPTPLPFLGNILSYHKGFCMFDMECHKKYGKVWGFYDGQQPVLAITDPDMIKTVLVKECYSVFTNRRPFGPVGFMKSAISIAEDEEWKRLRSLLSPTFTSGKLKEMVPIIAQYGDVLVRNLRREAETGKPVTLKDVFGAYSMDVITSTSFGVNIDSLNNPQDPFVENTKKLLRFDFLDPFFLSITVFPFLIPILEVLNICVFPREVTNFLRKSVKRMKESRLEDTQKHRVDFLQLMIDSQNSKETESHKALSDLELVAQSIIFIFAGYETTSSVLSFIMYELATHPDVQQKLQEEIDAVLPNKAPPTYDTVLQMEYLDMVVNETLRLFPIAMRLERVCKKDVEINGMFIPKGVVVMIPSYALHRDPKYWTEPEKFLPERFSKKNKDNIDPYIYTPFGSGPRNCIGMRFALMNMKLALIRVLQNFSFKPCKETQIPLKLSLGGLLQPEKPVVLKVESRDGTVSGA

[9] = test system: A549; assay: Early toxicity: A549 cell growth; format: cell-based; details: for Avg % Cell growth A549: Table 5
[10] = target: HDAC4 (Homo sapiens, UniProt P56524); assay: HDAC4 activity inhibition; format: biochemical
Chain of HDAC4 (P56524 whole entry, species assumed): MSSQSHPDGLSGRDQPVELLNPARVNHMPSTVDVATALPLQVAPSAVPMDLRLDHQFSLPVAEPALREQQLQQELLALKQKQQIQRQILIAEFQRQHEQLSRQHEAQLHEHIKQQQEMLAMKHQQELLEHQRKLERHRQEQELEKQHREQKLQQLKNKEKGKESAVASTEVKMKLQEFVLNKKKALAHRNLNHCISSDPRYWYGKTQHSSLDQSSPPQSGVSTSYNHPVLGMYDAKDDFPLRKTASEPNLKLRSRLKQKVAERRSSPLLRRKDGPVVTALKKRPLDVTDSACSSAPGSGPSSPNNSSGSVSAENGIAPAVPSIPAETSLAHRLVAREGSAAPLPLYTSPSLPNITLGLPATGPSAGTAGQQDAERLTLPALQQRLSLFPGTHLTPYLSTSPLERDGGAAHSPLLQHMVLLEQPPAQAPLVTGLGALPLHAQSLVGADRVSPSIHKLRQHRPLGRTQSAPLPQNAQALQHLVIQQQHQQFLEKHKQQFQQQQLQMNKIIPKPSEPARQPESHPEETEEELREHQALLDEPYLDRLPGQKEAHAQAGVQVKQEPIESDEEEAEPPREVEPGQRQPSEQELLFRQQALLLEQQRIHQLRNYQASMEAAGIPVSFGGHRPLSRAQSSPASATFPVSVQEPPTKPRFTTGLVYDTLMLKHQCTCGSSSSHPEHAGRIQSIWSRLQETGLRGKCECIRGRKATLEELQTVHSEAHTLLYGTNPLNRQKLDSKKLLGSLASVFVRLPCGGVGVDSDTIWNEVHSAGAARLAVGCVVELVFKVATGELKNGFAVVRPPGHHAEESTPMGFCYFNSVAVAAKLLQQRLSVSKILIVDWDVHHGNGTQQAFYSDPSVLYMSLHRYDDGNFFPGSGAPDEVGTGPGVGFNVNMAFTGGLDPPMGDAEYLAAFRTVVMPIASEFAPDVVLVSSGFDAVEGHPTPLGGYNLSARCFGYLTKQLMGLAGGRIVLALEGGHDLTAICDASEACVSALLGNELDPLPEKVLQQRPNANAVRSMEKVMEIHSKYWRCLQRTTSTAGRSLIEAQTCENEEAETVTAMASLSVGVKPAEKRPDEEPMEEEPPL

[11] = target: HDAC8 (Homo sapiens, UniProt Q9BY41); assay: HDAC8 activity inhibition; format: biochemical
Chain of HDAC8 (Q9BY41 whole entry, species assumed): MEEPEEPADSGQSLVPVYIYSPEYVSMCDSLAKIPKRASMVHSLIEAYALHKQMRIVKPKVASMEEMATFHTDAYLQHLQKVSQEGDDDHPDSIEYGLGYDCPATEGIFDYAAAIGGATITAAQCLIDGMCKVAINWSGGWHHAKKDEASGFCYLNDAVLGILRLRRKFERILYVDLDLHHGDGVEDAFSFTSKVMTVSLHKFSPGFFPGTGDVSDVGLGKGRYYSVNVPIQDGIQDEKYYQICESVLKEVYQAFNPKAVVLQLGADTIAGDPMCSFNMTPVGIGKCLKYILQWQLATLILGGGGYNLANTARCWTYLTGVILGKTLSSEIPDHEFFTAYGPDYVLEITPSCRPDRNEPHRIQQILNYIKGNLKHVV

[12] = test system: Human Erythrocytes; assay: In vitro Hemolytic Activity in Human Erythrocytes; format: cell-based; details: for Hemolysis at 100 μM (%) / Hemolysis, HC50: human erythrocytes
Protocol: The assay, which is an indicator of the toxic insult of a compound on the erythrocyte membrane is performed essentially as described in (Calogeropoulou T. et al., J. Med. Chem. 2008, 51, 897-908). […] [table]

[13] = Apparent solubility by nephelometry; format: physicochemical; details: kinetic from dmso stock
[14] = Maximum tolerated dose and dose range finding, 7 days oral gavage; details: for average weight loss at the end of the experiment: 7 days; for MTD at 7 days: BALB/c, mouse, in vivo, oral
Text: The primary objective of the dose range finding study is to establish the maximum tolerated dose (MTD) as determined by parameters such as clinical signs and reductions in body weight and food consumption, and to provide the data for appropriate dose selection in subsequent regulatory toxicology studies.

[15] = test system: Leishmania infantum; assay: Efficacy in mice infected with Leishmania infantum, 21-day treatment, limiting dilution assay; format: in vivo, BALB/c mice
Protocol: The rationale for the choice of four doses was to enable dose dependent information in activity and toxicity. The wait period of 15 days after treatment end enabled the follow up of reappearance of infection and also the determination of the time dependent compound elimination. […] Three days after the last treatment the mice were euthanized and parasite burden (log number of parasites/mg of organ) was evaluated by limiting dilution assay, essentially as described in Tavares. J. et al (Methods Mol Biol, 2019; 1971:289-301), in the spleen (FIG. 2B) and in the liver (FIG. 2C). Data represent the mean±SD, *p<0.05, **p<0.01 (One way ANOVA with Dunnett's test) in comparison with the untreated group.

[16] = test system: T. brucei brucei Lister 427 expressing red-shifted luciferase; assay: Efficacy in HAT mice model (acute T. b. brucei infection), live imaging; format: in vivo, BALB/c mice; details: for infection outcome (words): 50 mg/kg/day PO, 7 consecutive days
Text: (B) Overall evolution of parasite burden assessed by live imaging using IVIS Lumina LT (Perkin Elmer) during and after treatment. T. b. brucei Lister 427 expressing red-shifted luciferase was used in these experiments. DX is the day post treatment. (C) Quantification of bioluminescent signal plotted as average radiance (p/s/cm^2/sr) during and after treatment.
In addition, 5-cyclopentadecylpentyl (2-(trimethylammonio) ethyl) phosphate (19) was effective per os in vivo against T. brucei acute model of infection and also against the long lasting chronic infection model. […] The daily treatment with 50 mg/kg for 13 days lead to a significant decrease of infection and increase in animal survival. […] Altogether 5-cyclopentadecylpentyl (2-(trimethylammonio) ethyl) phosphate (19) is effective in the BALB/c infection model for T. brucei being a possible therapeutical option both for HAT stage I and II.
T. brucei brucei Lister 427 expressing red-shifted luciferase was used in these experiments as described for L. infantum in vivo infection in (Graça N A et al., Antimicrob Agents Chemother. 2016 Mar. 25; 60(4):2532-6). The overall evolution of parasite burden assessed by live imaging using IVIS Lumina LT (Perkin Elmer) during and after treatment. […] To confirm this possibility, the treated mice immune system was suppressed with cyclophosphamide. […] The advantage over pentamidine is the oral administration of compound 19 versus ip administration of pentamidine.

[17] = Table 5, read-out: Avg % inhibition CYP3A4
[18] = mean ± SD, Table 4a, read-out: % inhibition CYP3A4

## C[N+](C)(C)CCOP(=O)([O-])OCCCCCC1CCCCCCCCCCCCCC1 [Compound 19, 5-cyclopentadecylpentyl (2-(trimethylammonio)ethyl) phosphate]
[1]; Leishmania infantum, 10 μM, Table 1, read-out: Single Dose Assay 10 μM Mean Inhibitory Activity (%) ± SD
  inhibition at 10 µM: 78 ± 2%
[1]; Leishmania infantum, Table 1, read-out: Dose Response Curves IC50 ± SD
  IC50: 1.4 ± 0.1 µM
[1]; Leishmania infantum, Table 3, read-out: L. infantum intracellular amastigotes (MHOM/MA/67/ITMAP-263) IC50 ± SEM
  IC50: 1.4 ± 0.1 µM
[1]; PMA-differentiated THP-1 CC50 / IC50 L. infantum MHOM/MA/67/ITMAP-263, Table 3
  Selectivity Index CC50/IC50 or NOAEL/IC50: >71
[1]; THP-1 toxicity / L. infantum IC50, Table 1
  Selectivity Index CC50/IC50 or NOAEL/IC50: >71
[2]
  CC50: > 100 µM
  IC50: > 100 µM
[3]; MTT assay in PMA-differentiated THP-1 cells, Table 3, read-out: Toxicity CC50 ± SD
  CC50: > 100 µM
[3]; Table 2, read-out: Toxicity CC50 ± SD or NOAEL
  CC50: > 100 µM
[3]
  Toxicity MTT assay in PMA-differentiated THP-1 cells: >100 µM
[4]; Table 2
  activity against T. b. brucei blood-stream form: unexpectedly high activity in the low micromolar range
[4]; Trypanosoma brucei
  IC50: 4.47 ± 0.2 µM
[4]; Trypanosoma brucei, read-out: Single Dose Assay 10 μM Mean Inhibitory Activity (%) ± SD
  inhibition at 10 µM: 99 ± 1%
[4]; toxicity / T. b. brucei IC50, Table 2
  Selectivity Index CC50/IC50 or NOAEL/IC50: >22
[5]
  IC50: 5.4 µM
[6]
  IC50: 15.5 ± 1.5 µM
[7]
  inhibition at 10 µM: -50.7 ± 3.45%
[8]; [17]
  inhibition at 10 µM: -17.6 ± 8.89%
[8]; [18]
  inhibition at 10 µM: 17.6 ± 8.89%
[9]; 10 μM, 100% = not cytotoxic, 0% = cytostatic, −100% = cytotoxic
  % cell growth A549: 108.28 ± 0.09%
[9]; 10 μM
  Avg % Cell growth A549: 108.28 ± 0.09 (10 μM) %
[10]; 100 μM
  inhibition of the activity of HDAC4: does not inhibit
[11]; 100 μM
  effect on HDACr: not considered significant
[12]; 100 μM
  percentage of hemolytic activity lower than miltefosine: approximately 11 fold
  Hemolysis at 100 μM (%): 8.7%
[12]
  Hemolysis, HC50: >100 µM
[13]; FaSSIF, pH 6.5, fassif, read-out: Solubility in FaSSIF (pH = 6.5)
  solubility: > 100 µM
[13]; FeSSIF, pH 5, fessif, read-out: Solubility in FeSSIF (pH = 5)
  solubility: > 100 µM
[13]; PBS, pH 7.4, aqueous buffer, read-out: Solubility in PBS (pH = 7.4)
  solubility: < 10 µM
[13]; simulated gastric fluid (SGF), simulated gastric fluid, SGF, pH 1.6, read-out: Solubility in SGF (pH = 1.6)
  solubility: 12.5 µM
[13]; water, H2O, read-out: Solubility in H2O
  solubility: < 10 µM
[14]; 50 mg/kg daily oral gavage
  average weight loss at the end of the experiment: 7±8%
[14]; 100 mg/kg daily oral gavage
  day from which weight loss was significant: 5 days
  average weight loss at the end of the experiment: 11±4%
[14]
  MTD at 7 days: 100 mg/kg
[15]; compound 19 2.5 mg/kg every other day for 21 days
  average reduction of parasite burden, spleen: 98%
[15]; compound 19 every other day for 21 days, 20, 10, 5, 2.5 mg/kg, except 2.5 mg/kg in the spleen
  parasite burden, spleen and liver: maintained parasite burden under the detection limit
[16]
  infection outcome (words): eliminated the infection; also recorded: full clearance of infection
[16]; 3 weeks after treatment, also after cyclophosphamide immune suppression
  relapse after treatment: no relapse was detected

## CCCCCCCCCCCCCCCCOP(=O)([O-])OCC[N+](C)(C)C [Miltefosine, hexadecylphosphocholine, reference compound]
[1]; Leishmania infantum, read-out: Dose Response Curves IC50 ± SD (μM)
  IC50: 2.51 ± 1.73 µM
[1]; Leishmania infantum, read-out: L. infantum intracellular amastigotes (MHOM/MA/67/ITMAP-263) IC50 ± SEM (μM)
  IC50: 3.2 ± 1.4 µM
[2]
  CC50: 15.9 ± 1.2 µM
  IC50: 15.9 ± 1.2 µM
[3]
  Toxicity MTT assay in PMA-differentiated THP-1 cells: 15.9 ± 1.2 µM
[4]; Trypanosoma brucei
  IC50: 33.9 ± 0.5 µM
[5]
  IC50: 14.2 µM
[6]
  IC50: 43.7 ± 8.34 µM
[7]
  inhibition at 10 µM: 30.8 ± 16.7%
[8]; [17]
  inhibition at 10 µM: 8.39 ± 8.99%
[8]; [18]
  inhibition at 10 µM: 8.39 ± 8.99%
[9]; 10 μM
  Avg % Cell growth A549: 95.80 ± 15.78 (10 μM) %
[9]; at 1 μM
  % cell growth A549: 95.8 ± 15.78%
[10]; 10 μM
  inhibition of the activity of HDAC4: did not inhibit
[11]; 10 μM
  inhibition of the activity of HDAC8: did not inhibit
[12]; 100 μM
  Hemolysis at 100 μM (%): 96.1%
[12]
  Hemolysis, HC50: 38.3 ± 2.8 µM
[13]; pH 1.6, simulated gastric fluid
  solubility: 12.5 µM (≈ 5.09 µg/mL)
[13]; pH 5, fessif
  solubility: > 100 µM
[13]; pH 6.5, fassif
  solubility: > 100 µM
[13]; pH 7.4, aqueous buffer
  solubility: 25 µM (≈ 10.2 µg/mL)
[13]; water
  solubility: 25 µM (≈ 10.2 µg/mL)
[14]; 50 mg/kg daily oral gavage
  average weight loss at the end of the experiment: 11±3%
[14]; 100 mg/kg
  food intake compared to the equivalent treatment of compound 19: significant lesser food intake
[14]; 100 mg/kg daily oral gavage
  day from which weight loss was significant: 4 days
  average weight loss at the end of the experiment: 19±6%
[14]
  MTD at 7 days: 50 mg/kg
[15]; miltefosine 2.5 mg/kg, 21 consecutive days
  parasite burden reduction, liver: 98%
[15]; miltefosine 10 mg/kg, oral gavage, 21 consecutive days
  parasite burden in the spleen: one of the animals presented detected parasites in the spleen
[15]; miltefosine 20 mg/kg, oral gavage, 21 consecutive days
  parasite burden: maintained parasite burden under the detection limit
[15]; miltefosine 20, 10, 5 mg/kg, 21 consecutive days
  parasite burden in the liver: parasite burdens under the detection limit
[15]; miltefosine lower doses (5 and 2.5 mg/kg), 21 consecutive days
  parasite burden reduction, spleen: more than 99%
[16]
  infection outcome (words): no in vivo activity
[16]; listed as miltefosine
  infection outcome (words): did not work at all
